Measured values as given in US20240141445A1, “NOVEL METHOD FOR POOLED INTRON TAGGING FOR REAL TIME DRUG SCREENING” (CeMM - Forschungszentrum für Molekulare Medizin GmbH, priority 2019, published 2024).

Tested on: GFP-tagged proteins in HAP1 cells
Assay: GFP intron-tagged cell pool / arrayed clones, time-lapse imaging of protein levels and localization
Assay type: cell-based
Procedure: For the generation of lentiviral particles, HEK293T cells were transiently transfected with the intron-targeting library and packaging plasmids psPAX2, pMD2.G using PEI transfection. After 12 h the media was replaced with IMDM supplemented with 10% FBS and P/S. Viral supernatant was collected 48 h after transfection and stored at −80° C. HAP1 cells were transduced with virus and selected with puromycin for three days. Multiplicity of infection (MOI) was 0.2 and transduction was done at a coverage of 500×. After puromycin selection, cells were grown for one day in media without puromycin before being seeded for transfection (8 million cells per 15 cm dish, 48 million cells in total). One day after seeding, each dish was co-transfected with 20 μg pX330 expressing Cas9-BSD and the generic sgRNA and 10 μg EGFP donor plasmid with 90 μl Turbofection in 2.5 ml OptiMEM as described by the manufacturer. Transfection efficiency was approximately 10% as determined by a transfection done in parallel with pX330 Cas9-mCherry and the EGFP donor plasmid using the same ratio. The next day, cells were subjected to a transient selection using Blasticidin (10 μg/ml) for 24 h. After selection, cells were maintained in full media without Blasticidin and sorted five days after transfection by flow cytometry using a Sony Cell Sorter SH800ZD. 0.03% cells were GFP-positive and in total 24,300 of those GFP-positive cells were sorted and the cell population was expanded for 7 days before DNA was isolated to determine sgRNA abundance in the cell population.
To obtain clonal cell lines, cells were seeded at a concentration of 0.7 cells per well in 96-well cell culture plates. After 9 days of clonal expansion, 768 colonies were harvested using trypsin and cell suspensions were transferred in equal amounts to eight 96-well imaging plates (Perkin Elmer CellCarrier Ultra) and eight corresponding 96-well cell culture plates. After 24 h, cells on the imaging plates were imaged on a Perkin Elmer Opera Phenix High Content Screening System (5 fields of view per well, 63× water-immersion objective, confocal mode, excitation: 488 nm, […], 700 ms). Images were processed using Cell Profiler. To identify the intron-targeting sgRNAs expressed in imaged cells, multiplexed amplicon sequencing of the sgRNA regions was performed in the corresponding clones on the eight 96-well cell culture plates. Cells were lysed and cell lysates were used for PCR to amplify the sgRNA region in each clone using barcoded primers flanking the sgRNA region (36 different 5-mers added to the 5′end of the forward primer and 24 different 5-mers added to the 5′end of the reverse primer, 768 of all possible 864 combinations were used). PCR reactions were pooled and column purified before being send for sequencing by a commercial sequencing service. NGS reads were demultiplexed using Cutadapt (see Martin, M. EMBnet. journal, [S.I.], v. 17, n. 1, p. pp. 10-12, may 2011) and sgRNA read counts for each individual well were obtained using MAGeCK (see, Li (2014) Genome Biol 15, 554 (2014). For further analysis clones were excluded, for which either no cells in any of the 5 fields of view that were imaged were observed, no sequencing reads for the corresponding well were observed or for which polyclonal cell populations as determined by imaging or detection of multiple sgRNAs per well were observed. Using that strategy, images of 335 clones were obtained for which the expressed intron-targeting sgRNA corresponding to the tagged protein could be identified.
Live cell imaging was performed on a PerkinElmer Opera Phenix microscope with excitation laser 488 nm, and emission filter 500-550 nm, 700 ms.
Identification of the expressed sgRNAs by in situ sequencing was performed by following and modifying published protocols, see, e.g., Feldman (2019) loc. cit; Ke (2013) Nat Methods 10, 857-60; and Larsson (2010) Nat Methods 7, 395-7. […]

[1] = clonal cell line, 1 μM (FIG. 10)

SMILES: CN(Cc1cnc2nc(N)nc(N)c2n1)c1ccc(C(=O)N[C@@H](CCC(=O)O)C(=O)O)cc1 [MTX, methotrexate]
- PADI1 protein level (1 μM (FIG. 10)): decreases
- RUVBL1 protein level (1 μM (FIG. 10)): decreases
- nuclear foci of GFP-tagged DNMT1 (1 μM (FIG. 10)): disappearance of nuclear DNMT1 foci
- nuclear signal of GFP-tagged NUDT21 (1 μM (FIG. 10)): gain of nuclear signal
- nuclear signal of GFP-tagged TPI1 (1 μM (FIG. 10)): gain of nuclear signal
- nuclear signal of GFP-tagged transcription factor DR1 (1 μM (FIG. 10)): gain of nuclear signal
- localization of GFP-tagged ACLY (24 h treatment, 1 μM (FIG. 10)): increased nuclear localization
- localization of GFP-tagged RPA1 [1]: formation of nuclear foci
- localization of GFP-tagged RPA2 [1]: formation of nuclear foci

SMILES: Cc1sc2c(c1C)C(c1ccc(Cl)cc1)=N[C@@H](CC(=O)NCCCCCCCCNC(=O)COc1cccc3c1C(=O)N(C1CCC(=O)NC1=O)C3=O)c1nnc(C)n1-2 (some centres unmarked) [dBET6]
- localization of GFP-tagged AKAP8 (cell pool, FIG. 6e): gain of nuclear foci
- localization of GFP-tagged FUBP3 (cell pool, FIG. 6e): loss of subnuclear localization patterns
- localization of GFP-tagged MEAF1 (cell pool, FIG. 6e): loss of subnuclear localization patterns
- localization of GFP-tagged SFPQ (cell pool, FIG. 6e): gain of nuclear foci
- nuclear intensity of GFP-tagged UNG (cell pool, FIG. 6e): loss of nuclear intensity
